Measurements taken from patent US10294234B2, “HIV inhibitor compounds” (priority 2017, dated 2019).

These compounds were tested on HIV-1 (IIIB) in MT-4 cells (assay: MT-4 HIV assay). Details: HIV-1 (IIIB), MT-4 cells, 5 days, Cell Titer Glo; read-out: EC50.
Type: cell-based
How it was run: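 Antiviral activity was read by Cell Titer Glo after a 5-day, 37 °C culture of MT-4 cells pre-infected with a 1:250 dilution of HIV-1 (IIIB). Compounds were tested as threefold dilution series in complete RPMI. Controls were no drug, mock infection and 5 uM AZT.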

For `COC(=O)N[C@H](C(=O)N[C@@H](Cc1ccc(C#Cc2ccc(N3CC4CC(C3)N4C3COC3)nc2)cc1)[C@@H](O)CN(Cc1c(F)cc(-c2ccc(F)cn2)cc1F)NC(=O)[C@@H](NC(=O)OC)C(C)(C)C(F)(F)F)C(C)(C)C(F)(F)F` [Example 139, Methyl ((5S,10S,11S,14S)-8-(2,6-difluoro-4-(5-fluoropyridin-2-yl)benzyl)-16,16,16-trifluoro-10-hydroxy-15,15-dimethyl-11-(4-((6-(6-(oxetan-3-yl)-3,6-diazabicyclo[3.1.1]heptan-3-yl)pyridin-3-yl)ethynyl)benzyl)-3,6,13-trioxo-5-(1,1,1-trifluoro-2-methylpropan-2-yl)-2-oxa-4,7,8,12-tetraazahexadecan-14-yl)carbamateate], the EC50 was 3.92 nM.

Same assay, conditions: Human immunodeficiency virus 1, MT4, 120 h

For `COC(=O)N[C@H](C(=O)N[C@@H](Cc1ccc(C#Cc2ccc(N3CCN(C4(C)COC4)CC3)nc2)cc1)[C@@H](O)CN(Cc1c(F)cc(-c2ccn(C(F)F)n2)cc1F)NC(=O)[C@@H](NC(=O)OC)C(C)(C)C(F)(F)F)C(C)(C)C(F)(F)F` [Example 141, methyl ((5S,8S,9S,14S)-11-(4-(1-(difluoromethyl)-1H-pyrazol-3-yl)-2,6-difluorobenzyl)-16,16,16-trifluoro-9-hydroxy-15,15-dimethyl-8-(4-((6-(4-(3-methyloxetan-3-yl)piperazin-1-yl)pyridin-3-yl)ethynyl)benzyl)-3,6,13-trioxo-5-(1,1,1-trifluoro-2-methylpropan-2-yl)-2-oxa-4,7,11,12-tetraazahexadecan-14-yl)carbamate], the EC50 was 6.68 nM.

Same assay, conditions: Human immunodeficiency virus 1, MT4, 120 h; HIV-1 (IIIB), MT-4 cells, 5 days, Cell Titer Glo; read-out: EC50

Point of comparison: `COC(=O)N[C@H](C(=O)N[C@@H](Cc1ccc(C#Cc2ccc(N3CC4CCC(C3)N4[C@H]3CCOC3)nc2)cc1)[C@@H](O)CN(Cc1c(F)cc(-c2ccn(C(F)F)n2)cc1F)NC(=O)[C@@H](NC(=O)OC)C(C)(C)C(F)(F)F)C(C)(C)C(F)(F)F` [Example 142, Methyl ((5S,8S,9S,14S)-11-(4-(1-(difluoromethyl)-1H-pyrazol-3-yl)-2,6-difluorobenzyl)-16,16,16-trifluoro-9-hydroxy-15,15-dimethyl-3,6,13-trioxo-8-(4-((6-(8-((S)-tetrahydrofuran-3-yl)-3,8-diazabicyclo[3.2.1]octan-3-yl)pyridin-3-yl)ethynyl)benzyl)-5-(1,1,1-trifluoro-2-methylpropan-2-yl)-2-oxa-4,7,11,12-tetraazahexadecan-14-yl)carbamate], EC50 8.78 nM. Against it:
- COC(=O)N[C@H](C(=O)N[C@@H](Cc1ccc(C#Cc2ccc(N3CCN4CCOC[C@H]4C3)nc2)cc1)[C@@H](O)CN(Cc1c(F)cc(-c2cc(F)ccn2)cc1F)NC(=O)[C@@H](NC(=O)OC)C(C)(C)C(F)(F)F)C(C)(C)C(F)(F)F [Example 137, Methyl ((5S,8S,9S,14S)-11-(2,6-difluoro-4-(4-fluoropyridin-2-yl)benzyl)-16,16,16-trifluoro-8-(4-((6-((R)-hexahydropyrazino[2,1-c][1,4]oxazin-8(1H)-yl)pyridin-3-yl)ethynyl)benzyl)-9-hydroxy-15,15-dimethyl-3,6,13-trioxo-5-(1,1,1-trifluoro-2-methylpropan-2-yl)-2-oxa-4,7,11,12-tetraazahexadecan-14-yl)carbamate] — 2.7-fold lower, 3.31 nM
- COC(=O)N[C@H](C(=O)N[C@@H](Cc1ccc(C#Cc2ccc(N3CC4CC(C3)N4C3COC3)nc2)cc1)[C@@H](O)CN(Cc1c(F)cc(-c2cc(F)ccn2)cc1F)NC(=O)[C@@H](NC(=O)OC)C(C)(C)C(F)(F)F)C(C)(C)C(F)(F)F [Example 140, Methyl ((5S,10S,11S,14S)-8-(2,6-difluoro-4-(4-fluoropyridin-2-yl)benzyl)-16,16,16-trifluoro-10-hydroxy-15,15-dimethyl-11-(4-((6-(6-(oxetan-3-yl)-3,6-diazabicyclo [3.1.1]heptan-3-yl)pyridin-3-yl)ethynyl)benzyl)-3,6,13-trioxo-5-(1,1,1-trifluoro-2-methylpropan-2-yl)-2-oxa-4,7,8,12-tetraazahexadecan-14-yl)carbamate] — 1.7-fold lower, 5.09 nM
- COC(=O)N[C@H](C(=O)N[C@@H](Cc1ccc(C#Cc2ccc(N3CC4CCC(C3)N4[C@@H]3CCOC3)nc2)cc1)[C@@H](O)CN(Cc1c(F)cc(-c2ccn(C(F)F)n2)cc1F)NC(=O)[C@@H](NC(=O)OC)C(C)(C)C(F)(F)F)C(C)(C)C(F)(F)F [Example 143, Methyl ((5S,8S,9S,14S)-11-(4-(1-(difluoromethyl)-1H-pyrazol-3-yl)-2,6-difluorobenzyl)-16,16,16-trifluoro-9-hydroxy-15,15-dimethyl-3,6,13-trioxo-8-(4-((6-(8-((R)-tetrahydrofuran-3-yl)-3,8-diazabicyclo[3.2.1]octan-3-yl)pyridin-3-yl)ethynyl)benzyl)-5-(1,1,1-trifluoro-2-methylpropan-2-yl)-2-oxa-4,7,11,12-tetraazahexadecan-14-yl)carbamate] — within 1.5-fold, 7.79 nM
- COC(=O)N[C@H](C(=O)N[C@@H](Cc1ccc(C#Cc2ccc(N3CC4CCC(C3)N4C3COC3)nc2)cc1)[C@@H](O)CN(Cc1ccc(-c2ccccn2)cc1Cl)NC(=O)[C@@H](NC(=O)OC)C(C)(C)C(F)(F)F)C(C)(C)C(F)(F)F [Example 148, Methyl ((5S,8S,9S,14S)-11l-(2-chloro-4-(pyridin-2-yl)benzyl)-16,16,16-trifluoro-9-hydroxy-15,15-dimethyl-8-(4-((6-(8-(oxetan-3-yl)-3,8-diazabicyclo[3.2.1]octan-3-yl)pyridin-3-yl)ethynyl)benzyl)-3,6,13-trioxo-5-(1,1,1-trifluoro-2-methylpropan-2-yl)-2-oxa-4,7,11,12-tetraazahexadecan-14-yl)carbamate] — within 1.5-fold, 6.95 nM
- COC(=O)N[C@H](C(=O)N[C@@H](Cc1ccc(C#Cc2ccc(N3CC4CCC(C3)N4C3COC3)nc2)cc1)[C@@H](O)CN(Cc1c(Cl)cc(-c2ccccn2)cc1Cl)NC(=O)[C@@H](NC(=O)OC)C(C)(C)C(F)(F)F)C(C)(C)C(F)(F)F [Example 149, Methyl ((5S,8S,9S,14S)-11-(2,6-dichloro-4-(pyridin-2-yl)benzyl)-16,16,16-trifluoro-9-hydroxy-15,15-dimethyl-8-(4-((6-(8-(oxetan-3-yl)-3,8-diazabicyclo[3.2.1]octan-3-yl)pyridin-3-yl)ethynyl)benzyl)-3,6,13-trioxo-5-(1,1,1-trifluoro-2-methylpropan-2-yl)-2-oxa-4,7,11,12-tetraazahexadecan-14-yl)carbamate] — within 1.5-fold, 8.3 nM
- COC(=O)N[C@H](C(=O)N[C@@H](Cc1ccc(C#Cc2cnc(N3CC4CCC(C3)N4C3COC3)c(C)c2)cc1)[C@@H](O)CN(Cc1c(F)cc(-c2ccn(C(F)F)n2)cc1F)NC(=O)[C@@H](NC(=O)OC)C(C)(C)C(F)(F)F)C(C)(C)C(F)(F)F [Example 150, Methyl ((5S,8S,9S,14S)-11-(4-(1-(difluoromethyl)-1H-pyrazol-3-yl)-2,6-difluorobenzyl)-16,16,16-trifluoro-9-hydroxy-15,15-dimethyl-8-(4-((5-methyl-6-(8-(oxetan-3-yl)-3,8-diazabicyclo[3.2.1]octan-3-yl)pyridin-3-yl)ethynyl)benzyl)-3,6,13-trioxo-5-(1,1,1-trifluoro-2-methylpropan-2-yl)-2-oxa-4,7,11,12-tetraazahexadecan-14-yl)carbamate] — within 1.5-fold, 5.86 nM
- COC(=O)N[C@H](C(=O)N[C@@H](Cc1ccc(C#Cc2cnc(N3CC4CCC(C3)N4C3COC3)cc2C)cc1)[C@@H](O)CN(Cc1c(F)cc(-c2ccn(C(F)F)n2)cc1F)NC(=O)[C@@H](NC(=O)OC)C(C)(C)C(F)(F)F)C(C)(C)C(F)(F)F [Example 151, Methyl ((5S,8S,9S,14S)-11-(4-(1-(difluoromethyl)-1H-pyrazol-3-yl)-2,6-difluorobenzyl)-16,16,16-trifluoro-9-hydroxy-15,15-dimethyl-8-(4-((4-methyl-6-(8-(oxetan-3-yl)-3,8-diazabicyclo[3.2.1]octan-3-yl)pyridin-3-yl)ethynyl)benzyl)-3,6,13-trioxo-5-(1,1,1-trifluoro-2-methylpropan-2-yl)-2-oxa-4,7,11,12-tetraazahexadecan-14-yl)carbamate] — 1.8-fold lower, 4.82 nM
- COC(=O)N[C@H](C(=O)N[C@@H](Cc1ccc(C#Cc2ccc(N3CC4CCC(C3)N4C3COC3)nc2C)cc1)[C@@H](O)CN(Cc1c(F)cc(-c2ccn(C(F)F)n2)cc1F)NC(=O)[C@@H](NC(=O)OC)C(C)(C)C(F)(F)F)C(C)(C)C(F)(F)F [Example 152, Methyl ((5S,8S,9S,14S)-11-(4-(1-(difluoromethyl)-1H-pyrazol-3-yl)-2,6-difluorobenzyl)-16,16,16-trifluoro-9-hydroxy-15,15-dimethyl-8-(4-((2-methyl-6-(8-(oxetan-3-yl)-3,8-diazabicyclo[3.2.1]octan-3-yl)pyridin-3-yl)ethynyl)benzyl)-3,6,13-trioxo-5-(1,1,1-trifluoro-2-methylpropan-2-yl)-2-oxa-4,7,11,12-tetraazahexadecan-14-yl)carbamate] — within 1.5-fold, 6.16 nM
- COC(=O)N[C@H](C(=O)N[C@@H](Cc1ccc(C#Cc2ccc(N3CC4CCC(C3)N4C3COC3)nc2C)cc1)[C@@H](O)CN(Cc1c(F)cc(-c2cnn(C(F)F)c2)cc1F)NC(=O)[C@@H](NC(=O)OC)C(C)(C)C(F)(F)F)C(C)(C)C(F)(F)F [Example 155, Methyl ((5S,8S,9S,14S)-11-(4-(1-(difluoromethyl)-1H-pyrazol-4-yl)-2,6-difluorobenzyl)-16,16,16-trifluoro-9-hydroxy-15,15-dimethyl-8-(4-((2-methyl-6-(8-(oxetan-3-yl)-3,8-diazabicyclo[3.2.1]octan-3-yl)pyridin-3-yl)ethynyl)benzyl)-3,6,13-trioxo-5-(1,1,1-trifluoro-2-methylpropan-2-yl)-2-oxa-4,7,11,12-tetraazahexadecan-14-yl)carbamate] — within 1.5-fold, 8.95 nM
